The kinase profiling compilation of Christmann-Franck et al. (2016)

Legend:
Assay in all cases: radiometric filter-binding kinase assay, Kinase HotSpot
Settings in all cases: compound 0.5 µM; ATP 10 µM
AURKA (human) = AURKA (human) (UniProt O14965)
BLK (human) = BLK (human) (UniProt P51451)
CAMK2A (human) = CAMK2A (human) (UniProt Q9UQM7)
CDK1 CCNB1 (human) = CDK1 CCNB1 (human) (UniProt P06493+P14635)
CDK2 CCNA2 (human) = CDK2 CCNA2 (human) (UniProt P24941+P20248)
CLK1 (human) = CLK1 (human) (UniProt P49759)
CSNK1D (human) = CSNK1D (human) (UniProt P48730)
CSNK1G3 (human) = CSNK1G3 (human) (UniProt Q9Y6M4)
DAPK3 (human) = DAPK3 (human) (UniProt O43293)
DCLK2 (human) = DCLK2 (human) (UniProt Q8N568)
EPHB4 (human) = EPHB4 (human) (UniProt P54760)
FGFR1 (human) = FGFR1 (human) (UniProt P11362)
FRK (human) = FRK (human) (UniProt P42685)
GRK5 (human) = GRK5 (human) (UniProt P34947)
INSR (human) = INSR (human) (UniProt P06213)
MAP2K1 (human) = MAP2K1 (human) (UniProt Q02750)
MAPK11 (human) = MAPK11 (human) (UniProt Q15759)
MAPK9 (human) = MAPK9 (human) (UniProt P45984)
MARK2 (human) = MARK2 (human) (UniProt Q7KZI7)
MARK4 (human) = MARK4 (human) (UniProt Q96L34)
MUSK (human) = MUSK (human) (UniProt O15146)
MYLK (human) = MYLK (human) (UniProt Q15746)
NTRK1 (human) = NTRK1 (human) (UniProt P04629)
PAK2 (human) = PAK2 (human) (UniProt Q13177)
PKN1 (human) = PKN1 (human) (UniProt Q16512)
PRKCZ (human) = PRKCZ (human) (UniProt Q05513)
PRKD3 (human) = PRKD3 (human) (UniProt O94806)
RPS6KA1 KD1 KD2 (human) = RPS6KA1 KD1 KD2 (human) (UniProt Q15418)
RPS6KA6 KD1 KD2 (human) = RPS6KA6 KD1 KD2 (human) (UniProt Q9UK32)
RPS6KB1 (human) = RPS6KB1 (human) (UniProt P23443)
[1] = test system: SGK1 (human), O00141 [S422D]
SGK3 (human) = SGK3 (human) (UniProt Q96BR1)
SLK (human) = SLK (human) (UniProt Q9H2G2)
STK39 (human) = STK39 (human) (UniProt Q9UEW8)
STK4 (human) = STK4 (human) (UniProt Q13043)
TGFBR1 (human) = TGFBR1 (human) (UniProt P36897)
TGFBR2 (human) = TGFBR2 (human) (UniProt P37173)
[2] = biological target: TYK2 JH1 catalytic (human) (UniProt P29597)
WEE1 (human) = WEE1 (human) (UniProt P30291)
WNK3 (human) = WNK3 (human) (UniProt Q9BYP7)
ZAP70 (human) = ZAP70 (human) (UniProt P43403)
BRSK1 (human) = BRSK1 (human) (UniProt Q8TDC3)

BLK (human), sequence (P51451 whole entry, looked up): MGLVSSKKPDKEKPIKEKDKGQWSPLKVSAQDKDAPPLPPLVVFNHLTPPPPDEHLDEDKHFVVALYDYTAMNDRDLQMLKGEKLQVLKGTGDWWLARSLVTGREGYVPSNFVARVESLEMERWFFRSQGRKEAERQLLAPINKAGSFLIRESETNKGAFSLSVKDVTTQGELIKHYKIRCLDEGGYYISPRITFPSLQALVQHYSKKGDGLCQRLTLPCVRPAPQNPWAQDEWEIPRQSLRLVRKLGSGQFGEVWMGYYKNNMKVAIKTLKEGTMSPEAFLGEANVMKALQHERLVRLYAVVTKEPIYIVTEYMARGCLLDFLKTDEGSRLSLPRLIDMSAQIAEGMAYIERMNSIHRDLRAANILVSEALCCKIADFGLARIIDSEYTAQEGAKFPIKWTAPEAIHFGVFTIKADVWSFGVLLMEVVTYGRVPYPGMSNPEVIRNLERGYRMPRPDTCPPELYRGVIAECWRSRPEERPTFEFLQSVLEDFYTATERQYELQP
CSNK1D (human), sequence (P48730 whole entry, looked up): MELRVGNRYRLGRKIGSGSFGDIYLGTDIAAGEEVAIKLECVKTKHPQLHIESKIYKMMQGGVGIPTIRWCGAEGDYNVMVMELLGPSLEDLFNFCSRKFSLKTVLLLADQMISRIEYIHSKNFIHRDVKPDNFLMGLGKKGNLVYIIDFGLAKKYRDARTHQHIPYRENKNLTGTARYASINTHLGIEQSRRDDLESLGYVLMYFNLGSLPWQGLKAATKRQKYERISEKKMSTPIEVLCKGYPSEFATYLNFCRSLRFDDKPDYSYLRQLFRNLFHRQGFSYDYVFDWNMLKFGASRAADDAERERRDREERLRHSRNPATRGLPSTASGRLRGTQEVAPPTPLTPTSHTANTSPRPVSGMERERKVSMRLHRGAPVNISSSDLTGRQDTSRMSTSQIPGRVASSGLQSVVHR
INSR (human), sequence (P06213 whole entry, looked up): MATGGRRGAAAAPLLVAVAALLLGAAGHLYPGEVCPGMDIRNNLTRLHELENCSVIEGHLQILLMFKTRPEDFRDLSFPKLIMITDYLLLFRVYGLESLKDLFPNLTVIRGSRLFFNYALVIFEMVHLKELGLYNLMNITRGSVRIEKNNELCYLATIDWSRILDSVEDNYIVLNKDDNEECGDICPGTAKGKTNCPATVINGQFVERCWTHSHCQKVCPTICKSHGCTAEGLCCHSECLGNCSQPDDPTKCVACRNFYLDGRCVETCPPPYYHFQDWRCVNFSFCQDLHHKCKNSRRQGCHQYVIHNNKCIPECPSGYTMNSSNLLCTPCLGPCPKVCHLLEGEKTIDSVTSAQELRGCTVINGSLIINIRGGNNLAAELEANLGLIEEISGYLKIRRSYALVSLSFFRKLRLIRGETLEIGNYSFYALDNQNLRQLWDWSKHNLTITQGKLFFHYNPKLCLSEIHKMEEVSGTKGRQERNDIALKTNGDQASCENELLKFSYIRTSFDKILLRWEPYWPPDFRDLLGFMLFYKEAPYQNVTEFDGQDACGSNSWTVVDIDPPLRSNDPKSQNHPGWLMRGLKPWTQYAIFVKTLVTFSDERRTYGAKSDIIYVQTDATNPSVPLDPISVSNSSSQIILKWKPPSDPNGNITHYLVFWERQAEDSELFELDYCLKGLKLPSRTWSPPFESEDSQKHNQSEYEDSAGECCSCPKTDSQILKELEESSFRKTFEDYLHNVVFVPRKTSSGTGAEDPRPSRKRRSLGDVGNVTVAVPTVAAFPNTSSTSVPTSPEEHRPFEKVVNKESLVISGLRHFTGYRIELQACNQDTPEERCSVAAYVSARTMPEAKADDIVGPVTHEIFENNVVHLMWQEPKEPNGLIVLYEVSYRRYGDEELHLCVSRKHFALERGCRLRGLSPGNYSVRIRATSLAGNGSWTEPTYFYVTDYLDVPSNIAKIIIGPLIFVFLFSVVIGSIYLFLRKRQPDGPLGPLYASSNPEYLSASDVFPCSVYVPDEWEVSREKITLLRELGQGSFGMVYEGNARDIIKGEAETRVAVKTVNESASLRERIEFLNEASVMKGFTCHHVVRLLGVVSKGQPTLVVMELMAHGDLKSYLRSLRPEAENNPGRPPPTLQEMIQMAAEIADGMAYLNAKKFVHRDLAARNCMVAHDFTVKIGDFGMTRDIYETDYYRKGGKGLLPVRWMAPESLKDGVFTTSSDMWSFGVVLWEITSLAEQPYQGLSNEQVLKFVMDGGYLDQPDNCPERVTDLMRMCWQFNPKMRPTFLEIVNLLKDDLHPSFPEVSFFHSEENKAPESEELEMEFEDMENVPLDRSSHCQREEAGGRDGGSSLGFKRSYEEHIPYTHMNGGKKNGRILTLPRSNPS
GRK5 (human), sequence (P34947 whole entry, looked up): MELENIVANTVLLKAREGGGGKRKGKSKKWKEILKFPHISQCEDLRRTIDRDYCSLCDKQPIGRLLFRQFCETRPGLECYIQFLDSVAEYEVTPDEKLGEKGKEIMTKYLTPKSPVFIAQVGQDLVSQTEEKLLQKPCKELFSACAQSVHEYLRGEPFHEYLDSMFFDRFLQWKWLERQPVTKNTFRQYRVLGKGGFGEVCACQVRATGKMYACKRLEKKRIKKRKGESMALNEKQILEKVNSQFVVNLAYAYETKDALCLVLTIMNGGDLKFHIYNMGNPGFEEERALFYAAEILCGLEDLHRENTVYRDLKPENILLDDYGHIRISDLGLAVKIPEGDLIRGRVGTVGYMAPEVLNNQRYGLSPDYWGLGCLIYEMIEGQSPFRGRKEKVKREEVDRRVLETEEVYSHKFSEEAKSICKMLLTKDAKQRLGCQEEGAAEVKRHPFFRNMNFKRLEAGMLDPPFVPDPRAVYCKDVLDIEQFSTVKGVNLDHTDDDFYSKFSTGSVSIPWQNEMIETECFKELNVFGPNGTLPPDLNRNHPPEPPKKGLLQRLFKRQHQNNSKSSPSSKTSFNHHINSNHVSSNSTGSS
FGFR1 (human), sequence (P11362 whole entry, looked up): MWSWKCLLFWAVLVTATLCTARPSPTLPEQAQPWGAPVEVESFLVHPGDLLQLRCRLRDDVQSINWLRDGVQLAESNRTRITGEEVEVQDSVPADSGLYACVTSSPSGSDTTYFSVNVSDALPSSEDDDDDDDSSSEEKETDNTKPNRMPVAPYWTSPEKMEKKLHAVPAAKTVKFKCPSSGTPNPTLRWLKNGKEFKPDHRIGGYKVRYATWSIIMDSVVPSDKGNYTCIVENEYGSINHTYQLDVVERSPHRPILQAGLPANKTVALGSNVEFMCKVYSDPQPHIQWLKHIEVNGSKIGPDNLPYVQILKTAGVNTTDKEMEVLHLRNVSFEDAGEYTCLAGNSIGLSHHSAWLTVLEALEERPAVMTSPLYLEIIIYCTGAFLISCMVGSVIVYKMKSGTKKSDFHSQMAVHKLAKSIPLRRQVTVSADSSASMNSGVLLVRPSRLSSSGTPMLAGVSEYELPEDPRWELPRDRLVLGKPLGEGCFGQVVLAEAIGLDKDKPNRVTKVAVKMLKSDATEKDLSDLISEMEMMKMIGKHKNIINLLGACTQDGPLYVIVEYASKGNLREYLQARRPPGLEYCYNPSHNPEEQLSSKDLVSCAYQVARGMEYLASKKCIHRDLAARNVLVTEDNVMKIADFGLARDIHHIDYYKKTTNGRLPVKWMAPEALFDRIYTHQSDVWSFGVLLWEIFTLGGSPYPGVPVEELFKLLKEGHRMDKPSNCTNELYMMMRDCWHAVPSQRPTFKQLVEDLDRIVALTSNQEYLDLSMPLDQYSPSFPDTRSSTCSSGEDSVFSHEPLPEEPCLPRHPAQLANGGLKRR
RPS6KA6 KD1 KD2 (human), sequence (Q9UK32 whole entry, looked up): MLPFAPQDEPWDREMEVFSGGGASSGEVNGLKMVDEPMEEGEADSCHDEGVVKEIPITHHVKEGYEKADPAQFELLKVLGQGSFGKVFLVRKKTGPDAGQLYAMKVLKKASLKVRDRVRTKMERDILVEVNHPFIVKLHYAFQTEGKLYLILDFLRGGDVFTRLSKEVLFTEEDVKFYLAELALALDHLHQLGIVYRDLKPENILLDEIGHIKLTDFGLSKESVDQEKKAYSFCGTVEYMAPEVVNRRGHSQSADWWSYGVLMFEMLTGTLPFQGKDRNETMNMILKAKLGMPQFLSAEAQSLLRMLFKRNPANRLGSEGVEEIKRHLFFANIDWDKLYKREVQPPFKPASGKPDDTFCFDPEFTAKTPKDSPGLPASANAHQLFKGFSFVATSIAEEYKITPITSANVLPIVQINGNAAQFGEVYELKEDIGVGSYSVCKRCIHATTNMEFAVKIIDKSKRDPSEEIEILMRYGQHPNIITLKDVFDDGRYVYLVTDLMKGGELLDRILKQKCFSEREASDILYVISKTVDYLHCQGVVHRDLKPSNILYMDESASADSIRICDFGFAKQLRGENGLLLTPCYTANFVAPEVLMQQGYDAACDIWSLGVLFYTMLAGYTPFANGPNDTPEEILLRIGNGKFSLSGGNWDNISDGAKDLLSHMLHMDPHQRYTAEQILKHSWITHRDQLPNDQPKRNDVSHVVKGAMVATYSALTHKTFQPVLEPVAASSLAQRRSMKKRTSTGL
MAPK11 (human), sequence (Q15759 whole entry, looked up): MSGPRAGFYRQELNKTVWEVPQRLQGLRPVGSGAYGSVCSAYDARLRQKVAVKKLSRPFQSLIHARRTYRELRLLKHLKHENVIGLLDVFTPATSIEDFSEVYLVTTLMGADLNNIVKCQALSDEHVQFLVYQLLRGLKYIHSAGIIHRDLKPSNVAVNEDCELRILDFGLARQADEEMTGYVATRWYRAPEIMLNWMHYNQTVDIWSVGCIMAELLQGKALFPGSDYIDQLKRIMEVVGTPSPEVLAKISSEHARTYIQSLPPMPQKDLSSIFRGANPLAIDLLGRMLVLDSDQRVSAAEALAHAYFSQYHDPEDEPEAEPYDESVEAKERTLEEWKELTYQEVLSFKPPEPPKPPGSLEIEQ

Cc1cc(Nc2nc(-c3ccccc3)nc3ccccc23)n[nH]1
residual activity (AURKA (human)): 19.8%
residual activity (BLK (human)): 56.2%
residual activity (CAMK2A (human)): 108%
residual activity (CDK1 CCNB1 (human)): 76%
residual activity (CDK2 CCNA2 (human)): 96.9%
residual activity (CLK1 (human)): 74%
residual activity (CSNK1D (human)): 96.7%
residual activity (CSNK1G3 (human)): 75%
residual activity (DAPK3 (human)): 57.5%
residual activity (DCLK2 (human)): 87.4%
residual activity (EPHB4 (human)): 91.1%
residual activity (FGFR1 (human)): 48.8%
residual activity (FRK (human)): 72.5%
residual activity (GRK5 (human)): 119%
residual activity (INSR (human)): 31.6%
residual activity (MAP2K1 (human)): 91.6%
residual activity (MAPK11 (human)): 96.8%
residual activity (MAPK9 (human)): 92.4%
residual activity (MARK2 (human)): 89.6%
residual activity (MARK4 (human)): 83.5%
residual activity (MUSK (human)): 51%
residual activity (MYLK (human)): 60.2%
residual activity (NTRK1 (human)): 14.6%
residual activity (PAK2 (human)): 91.8%
residual activity (PKN1 (human)): 89.9%
residual activity (PRKCZ (human)): 97.1%
residual activity (PRKD3 (human)): 93.9%
residual activity (RPS6KA1 KD1 KD2 (human)): 58%
residual activity (RPS6KA6 KD1 KD2 (human)): 56.3%
residual activity (RPS6KB1 (human)): 60.4%
residual activity [1]: 95.5%
residual activity (SGK3 (human)): 104%
residual activity (SLK (human)): 42.2%
residual activity (STK39 (human)): 118%
residual activity (STK4 (human)): 58%
residual activity (TGFBR1 (human)): 97.1%
residual activity (TGFBR2 (human)): 116%
residual activity [2]: 34.3%
residual activity (WEE1 (human)): 88%
residual activity (WNK3 (human)): 74.9%
residual activity (ZAP70 (human)): 105%

O=c1c(-c2ccc(F)cc2)c(-c2ccncc2)[nH]n1-c1ccc(Cl)cc1
residual activity (AURKA (human)): 94%
residual activity (BLK (human)): 91.6%
residual activity (BRSK1 (human)): 88.7%
residual activity (CAMK2A (human)): 86.9%
residual activity (CDK2 CCNA2 (human)): 89.9%
residual activity (CLK1 (human)): 97%
residual activity (CSNK1D (human)): 26.7%
residual activity (CSNK1G3 (human)): 102%
residual activity (DAPK3 (human)): 94.7%
residual activity (DCLK2 (human)): 99.9%
residual activity (EPHB4 (human)): 97.2%
residual activity (FGFR1 (human)): 93.7%
residual activity (FRK (human)): 78.5%
residual activity (GRK5 (human)): 90.3%
residual activity (INSR (human)): 110%
residual activity (MAP2K1 (human)): 70.1%
residual activity (MAPK11 (human)): 55.9%
residual activity (MAPK9 (human)): 6.07%
residual activity (MARK2 (human)): 88.8%
residual activity (MARK4 (human)): 80%
residual activity (MUSK (human)): 102%
residual activity (MYLK (human)): 101%
residual activity (NTRK1 (human)): 95.5%
residual activity (PAK2 (human)): 102%
residual activity (PKN1 (human)): 92.4%
residual activity (PRKCZ (human)): 99%
residual activity (PRKD3 (human)): 74.5%
residual activity (RPS6KA1 KD1 KD2 (human)): 103%
residual activity (RPS6KA6 KD1 KD2 (human)): 90.3%
residual activity (RPS6KB1 (human)): 89.9%
residual activity [1]: 97.3%
residual activity (SGK3 (human)): 100%
residual activity (SLK (human)): 98.2%
residual activity (STK39 (human)): 128%
residual activity (STK4 (human)): 90%
residual activity (TGFBR1 (human)): 101%
residual activity (TGFBR2 (human)): 97.7%
residual activity [2]: 90.9%
residual activity (WEE1 (human)): 81.6%
residual activity (WNK3 (human)): 93.6%
residual activity (ZAP70 (human)): 108%
